Values of other authors in patent US20250194589A1, “AGROCHEMICAL EMULSIFIABLE COMPOSITION” (priority 2022, published 2025).
Like-named read-outs stand apart in the source and are kept apart here.

What was measured:
[1] = not given; remark: listed apart in the source
[2] = measurement method: Flask shaking

Row | Compound | LogPow ([1]; measurement method not printed) | LogPow [1, 2] | Degree of water-solubility (20° C.) [ng/mL] | further results
1 | Cc1c(COC(=O)[C@@H]2[C@H](/C=C(\Cl)C(F)(F)F)C2(C)C)cccc1-c1ccccc1 (racemic) [Bifenthrin] |  |  |  | Degree of water-solubility (20-25° C.): <0.1 ng/mL; LogPow ([1]; measurement method: HPLC): 6.6
2 | Cc1c(F)c(F)c(COC(=O)[C@@H]2[C@H](/C=C(\Cl)C(F)(F)F)C2(C)C)c(F)c1F (racemic) [Tefluthrin] | 6.4 |  |  | 
3 | C/C(=N\C#N)N(C)Cc1ccc(Cl)nc1 [Acetamiprid, acetamiprid] | Acetamiprid (LogPow = 0.8) |  |  | LogPow ([1]; measurement method not printed, listed as acetamiprid): 0.8
4 | CC1(C)[C@H](C(=O)O[C@H](C#N)c2cccc(Oc3ccccc3)c2)[C@@H]1/C=C\C(=O)OC(C(F)(F)F)C(F)(F)F [Acrinathrin] |  | 5.6 |  | 
5 | CCCOc1cc(C(F)(F)F)ccc1O[C@H]1C[C@H]2CCC[C@@H](C1)N2Oc1ccc(C(F)(F)F)cn1 [Acynonapyr] | 6.5 |  | 0.889 | 
6 | Cc1ccc(/N=C/N(C)/C=N/c2ccc(C)cc2C)c(C)c1 [Amitraz] | 5.5 |  |  | Degree of water-solubility (25° C.): 94 ng/mL
7 | CCOC(=O)CCN(SN(C)C(=O)Oc1cccc2c1OC(C)(C)C2)C(C)C [Benfuracarb] |  | 4.22 |  | 
8 | CCOP(=O)(SC(C)CC)SC(C)CC (stereo not drawn) [Cadusafos] |  |  |  | LogPow ([1]; measurement method: HPLC): 4.08
9 | CCCCN(CCCC)SN(C)C(=O)Oc1cccc2c1OC(C)(C)C2 [Carbosulfan] | 5.45 |  |  | Degree of water-solubility (25° C.): 3000 ng/mL
10 | CCOP(=S)(OCC)Oc1nc(Cl)c(Cl)cc1Cl [Chlorpyrifos] |  | 4.70 |  | Degree of water-solubility (25° C.): 941 ng/mL
11 | Clc1ccccc1-c1nnc(-c2ccccc2Cl)nn1 [Clofentezine] |  |  |  | LogPow ([1]; measurement method: HPLC): 4.1
12 | Cc1nn(C)c(/C(OC(=O)C(C)(C)C)=C(\C#N)c2ccc(C(C)(C)C)cc2)c1C [Cyenopyrafen] |  |  | 300 | LogPow ([1]; measurement method: HPLC): 5.6
13 | COCCOC(=O)C(C#N)(C(=O)c1ccccc1C(F)(F)F)c1ccc(C(C)(C)C)cc1 (stereo not drawn) [Cyflumetofen] |  |  |  | LogPow ([1]; measurement method: HPLC): 4.3
14 | CC1(C)C(C=C(Cl)Cl)C1C(=O)OC(C#N)c1ccc(F)c(Oc2ccccc2)c1 (stereo not drawn) [Cyfluthrin] | 6.00 |  |  | 
15 | CC1(C)C(/C=C(\Cl)C(F)(F)F)C1C(=O)OC(C#N)c1cccc(Oc2ccccc2)c1 (stereo not drawn) [Cyhalothrin] | 6.9 |  | 4.2 | 
16 | ClC1=C(Cl)C(Cl)(C2(Cl)C(Cl)=C(Cl)C(Cl)=C2Cl)C(Cl)=C1Cl [Dienochlor] | 7.2 |  |  | Degree of water-solubility (25° C.): 26 ng/mL
17 | CCOc1ccc(C(C)(C)COCc2cccc(Oc3ccccc3)c2)cc1 [Etofenprox] |  |  | 22.5 | LogPow ([1]; measurement method: HPLC): 6.9
18 | CCOc1cc(C(C)(C)C)ccc1C1COC(c2c(F)cccc2F)=N1 (stereo not drawn) [Etoxazole] | 5.52 ± 0.58 |  | 70.4 | 
19 | CC(C)(C)c1ccc(CCOc2ncnc3ccccc23)cc1 [Fenazaquin] | 5.71 |  |  | 
20 | CC(C)C(C(=O)OC(C#N)c1cccc(Oc2ccccc2)c1)c1ccc(Cl)cc1 (stereo not drawn) [Fenvalerate] | 6.53 |  |  | 
21 | CC(C)[C@H](C(=O)OC(C#N)c1cccc(Oc2ccccc2)c1)c1ccc(OC(F)F)cc1 (stereo partly drawn) [Flucythrinate] | 4.74 |  |  | 

Row | Compound | LogPow ([1]; measurement method not printed) | LogPow [1, 2] | Degree of water-solubility (20° C.) [ng/mL] | further results
22 | CC(C)[C@H](Nc1ccc(C(F)(F)F)cc1Cl)C(=O)OC(C#N)c1cccc(Oc2ccccc2)c1 (stereo partly drawn) [Fluvalinate] |  | 4.26 | 1.12 | 
23 | CON=CNC(=O)c1ccc(C2=NOC(c3cc(Cl)cc(Cl)c3)(C(F)(F)F)C2)cc1C (stereo not drawn) [Fluxametamide] |  |  | 54 | LogPow ([1]; measurement method: HPLC): 5.0
24 | COC(=O)N(C(=O)N1CO[C@@]2(C(=O)OC)Cc3cc(Cl)ccc3C2=N1)c1ccc(OC(F)(F)F)cc1 [Indoxacarb] |  | 4.65 |  | Degree of water-solubility (25° C.): 200 ng/mL
25 | O=C(NC(=O)c1c(F)cccc1F)Nc1cc(Cl)c(OC(F)(F)C(F)C(F)(F)F)cc1Cl (stereo not drawn) [Lufenuron] |  |  |  | Degree of water-solubility (25° C.): <60 ng/mL; LogPow ([1]; measurement method: HPLC): 5.12
26 | O=C(NC(=O)c1c(F)cccc1F)Nc1ccc(OC(F)(F)C(F)OC(F)(F)F)c(Cl)c1 (stereo not drawn) [Novaluron] |  |  | 3 | LogPow ([1]; measurement method: HPLC): 4.3
27 | CC1(C)C(C=C(Cl)Cl)C1C(=O)OCc1cccc(Oc2ccccc2)c1 (stereo not drawn) [Permethrin] |  | 6.36 |  | 
28 | CCCSP(=O)(OCC)Oc1ccc(Br)cc1Cl (stereo not drawn) [Profenofos] | 4.435 |  |  | 
29 | CCCSP(=S)(OCC)Oc1ccc(Cl)cc1Cl (stereo not drawn) [Prothiofos] |  | 5.67 |  | 
30 | COC(c1ccc(N(C(=O)c2c(C)nn(C)c2C)C(=O)C(C)C)cc1CC(C)C)(C(F)(F)F)C(F)(F)F [Pyflubumide] |  | 5.34 | 270 | 
31 | FC(F)(F)c1ccc(OCCCOc2c(Cl)cc(OCC=C(Cl)Cl)cc2Cl)nc1 [Pyridalyl] |  |  |  | Degree of water-solubility (25° C.): 0.15 ng/mL; LogPow ([1]; measurement method: HPLC): 8.1
32 | CCC(C)(C)C(=O)OC1=C(c2ccc(Cl)cc2Cl)C(=O)OC12CCCCC2 [Spirodiclofen] |  | 5.83 | 50 | 
33 | Cc1cc(C)c(C2=C(OC(=O)CC(C)(C)C)C3(CCCC3)OC2=O)c(C)c1 [Spiromesifen] |  |  | 130 | LogPow ([1]; measurement method: HPLC): 4.55
34 | CCc1nn(C)c(C(=O)NCc2ccc(C(C)(C)C)cc2)c1Cl [Tebufenpyrad] |  | 4.93 |  | 
35 | CCc1nn(C)c(C(=O)NCc2ccc(Oc3ccc(C)cc3)cc2)c1Cl [Tolfenpyrad] | Tolfenpyrad (LogPow = 5.61) | 5.6 |  | Degree of water-solubility (25° C.): 87 ng/mL; LogPow ([1]; measurement method not printed, listed as tolfenpyrad): 5.61
36 | Abamectin |  | 4.4 ± 0.3 |  | Degree of water-solubility (25° C.): 1210 ng/mL
37 | Emamectin benzoate | 5.7 |  |  | 
38 | Lepimectin |  |  |  | Degree of water-solubility (25° C.): 103.47 ng/mL; LogPow ([1]; measurement method: HPLC): 6.5
39 | Milbemectin [Milbemectin (M.A3)] |  | >4.94 | 880 | 
40 | Milbemectin [Milbemectin (M.A4)] |  | >5.06 | 7200 | 
41 | Pyrethrin | 5.6 |  |  | Degree of water-solubility (temperature not given): 9000 ng/mL
